Data on 2 compounds can be found in article PMC8844822, “SARM1 is a multi-functional NAD(P)ase with prominent base exchange activity, all regulated bymultiple physiologically relevant NAD metabolites” (iScience, 2022).

One assay has as its target T1, hCD38 (Homo sapiens, UniProt P28907).
T1 construct: a soluble fragment Val43-Ile300 with 6x-His tag at C terminus; 6xHis (C); purchased R&D Systems
T1 sequence (P28907 43-300): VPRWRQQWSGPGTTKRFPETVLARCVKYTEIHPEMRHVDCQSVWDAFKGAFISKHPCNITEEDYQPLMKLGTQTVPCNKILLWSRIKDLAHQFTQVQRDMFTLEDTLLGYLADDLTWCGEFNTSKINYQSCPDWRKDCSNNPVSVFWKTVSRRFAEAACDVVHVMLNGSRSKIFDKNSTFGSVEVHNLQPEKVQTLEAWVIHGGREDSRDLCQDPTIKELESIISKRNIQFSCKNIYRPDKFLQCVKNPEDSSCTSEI
Kind of assay: Base exchange reactions at neutral pH (HPLC). It counts as biochemical.

The target in a further assay is T2, hSARM1 SAM-TIR (Homo sapiens, UniProt Q6SZW1).
T2 construct: made in house
T2 sequence (Q6SZW1 409-724): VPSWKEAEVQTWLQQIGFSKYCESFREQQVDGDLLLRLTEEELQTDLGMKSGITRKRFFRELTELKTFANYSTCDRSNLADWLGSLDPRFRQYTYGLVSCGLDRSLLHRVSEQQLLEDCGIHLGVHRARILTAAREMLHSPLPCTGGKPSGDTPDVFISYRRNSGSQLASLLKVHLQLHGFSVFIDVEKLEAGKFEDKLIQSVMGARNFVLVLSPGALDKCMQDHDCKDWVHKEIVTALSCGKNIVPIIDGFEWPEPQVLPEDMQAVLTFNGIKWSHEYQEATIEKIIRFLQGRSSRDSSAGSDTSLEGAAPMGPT
Nature of the assay: Base exchange reactions at neutral pH (HPLC). It counts as biochemical. On the procedure:
Multiple time stops from individual assays as above were analyzed for linearity, then extents of hydrolysis (white bars), cyclization (red bars), or base exchange (black bars) were calculated from each corresponding product as shown in Figure 1B and STAR methods. […] See also Figures S3–S5, and Table S1
Rates were calculated as follows.

Setting [1] is: NAD […] alone or + AcPyr 2 mM / Vacor 0.5 mM / Na 2 mM.
The mark [2] stands for this setting: NADP […] alone or + AcPyr 2 mM / Vacor 0.5 mM / Na 2 mM.

On to `CC(=O)c1cccnc1` [AcPyr, 3-acetylpyridine], for which the rate is given as 8284 ±992 mU/mg on hCD38 (setting [1]), 3255 ±787 mU/mg on hCD38 (setting [2]), 427.3 ±76.5 mU/mg at hSARM1 SAM-TIR (setting [1]) and 261.7 ±60.9 mU/mg at hSARM1 SAM-TIR (setting [2]).

Turning to `O=C(NCc1cccnc1)Nc1ccc([N+](=O)[O-])cc1` [Vacor, 1-(4-nitrophenyl)-3-(pyridin-3-ylmethyl)urea], the rate on hCD38 (setting [1]) is listed as 6818 ±1376 mU/mg; on hCD38 (setting [2]) it was 3496 ±593 mU/mg; at hSARM1 SAM-TIR (setting [1]), 284.8 ±51.1 mU/mg; at hSARM1 SAM-TIR (setting [2]), 266.0 ±54.1 mU/mg.
